Test results: patent publication US20050090428A1, “Porphyrins with virucidal activity” (priority 2002, published 2005)

Key:
MAGI cells = assay: Trypan blue exclusion cytotoxicity test; conditions: four concentrations of porphyrin
Method: A standard trypan blue exclusion test (Strober, Trypan blue exclusion test of cell viability, p. A.3.3-A.3.4, in J. E. Coligan and A. M. Kruisbeek (ed.), Current protocols in immunology, Wiley-Greene, New York, N.Y., 1994) was used. Compounds at a concentration of 50 μg/ml in growth medium were added to a 96-well plate with MAGI cells. After 72 hr cells were detached by standard trypsin solution (0.25% trypsin-0.05% EDTA) and diluted 1:10 in growth medium. To test cell viability, 1 part of 0.4% trypan blue and 9 parts of diluted cells were mixed, incubated the mixture about 2 min at room temperature, and applied a drop of the trypan blue/cell mixture to a hemacytometer. Using a binocular microscope, the stained (nonviable) and unstained (viable) cells were then counted. The fraction of viable cells was calculated as the number of unstained cells in the wells treated with compound as a percentage of the number in control wells.
The selective index value was defined as the CC50/EC50 ratio.
A trypan blue exclusion test to determine possible toxicity of the test compounds. Compounds at a concentration of 50 μg/ml in growth medium were added to MAGI cells. […] After 72 hr, a trypan blue assay was used to compare cell viability in cells treated with compounds to untreated cells.

HIV-1 IIIB = assay: Screening for virucidal activity against HIV-1 IIIB, MAGI cell assay
89.6 Env = 89.6 Env (Human immunodeficiency virus type 1 group M subtype B, UniProt Q73372); format: cell-based, HIV-1
89.6 Env, sequence (Q73372 32-719 limits assumed): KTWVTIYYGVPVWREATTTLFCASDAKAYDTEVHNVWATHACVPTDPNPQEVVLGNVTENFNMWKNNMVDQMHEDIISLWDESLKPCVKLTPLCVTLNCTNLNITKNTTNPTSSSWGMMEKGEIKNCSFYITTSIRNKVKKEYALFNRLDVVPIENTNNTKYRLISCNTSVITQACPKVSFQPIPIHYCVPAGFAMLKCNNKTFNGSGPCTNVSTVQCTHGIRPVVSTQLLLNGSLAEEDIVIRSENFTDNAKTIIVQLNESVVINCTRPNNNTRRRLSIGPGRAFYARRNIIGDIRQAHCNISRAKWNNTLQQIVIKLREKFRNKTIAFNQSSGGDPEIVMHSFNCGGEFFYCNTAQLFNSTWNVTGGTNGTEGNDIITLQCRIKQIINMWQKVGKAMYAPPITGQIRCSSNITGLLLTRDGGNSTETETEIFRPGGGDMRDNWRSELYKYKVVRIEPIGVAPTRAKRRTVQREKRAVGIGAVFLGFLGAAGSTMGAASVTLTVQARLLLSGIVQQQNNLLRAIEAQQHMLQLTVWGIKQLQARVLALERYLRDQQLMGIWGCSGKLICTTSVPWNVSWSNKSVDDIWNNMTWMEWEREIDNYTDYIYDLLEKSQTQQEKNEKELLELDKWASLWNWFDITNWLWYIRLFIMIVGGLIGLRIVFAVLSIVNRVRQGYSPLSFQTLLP
89.6 Env, sequence (Q73372 509-719 partner limits assumed): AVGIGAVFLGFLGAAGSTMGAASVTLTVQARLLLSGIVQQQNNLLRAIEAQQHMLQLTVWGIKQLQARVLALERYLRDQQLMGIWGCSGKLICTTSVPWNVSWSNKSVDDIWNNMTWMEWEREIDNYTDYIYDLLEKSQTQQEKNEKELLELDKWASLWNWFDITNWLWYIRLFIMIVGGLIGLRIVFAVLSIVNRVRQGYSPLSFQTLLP

HSV-1(F) or HSV-2(G) = assay: In vitro HSV inactivation, plaque assay on Vero cells; format: cell-based, herpes simplex virus; conditions: room temperature, in the dark, up to 60 minutes
Method: Either HSV-1(F) or HSV-2(G) (10^7 pfu) was mixed with 1 ml of porphyrin at the concentration indicated in Dulbecco's modified Eagle's medium (DME) with 1% newborn calf serum. All assays were performed in duplicate. All tubes were wrapped in foil to keep out light, and ambient room light was reduced as much as was practicable. Virus and porphyrin were incubated together at room temperature for times up to 60 minutes (Table 2). Following incubation, 10 fold serial dilutions were performed in DME with 1% newborn serum, using tubes wrapped in foil. Virus was diluted 20,000 fold and plated on Vero cells. Following a 2 hour incubation with the cells, the inoculum was removed and cells were overlaid with DME with 1% newborn calf serum and 0.2% human gamma globulin. Cells were fixed and stained, and plaques counted, 2 days after infection.

[1] = biological target: T1, HIV-1 Env protein (HXB2 Env) (Human immunodeficiency virus type 1 group M subtype B, UniProt P04578); format: cell-based
T1 construct: expressed in transfected cells; host or cells: 293T cells transfected with pIIIenv3-1 plus pCMVTAT; cocultured with 3T3 cells expressing CD4 and CXCR4

HIV-189.6 = assay: Inactivation of HIV-1 89.6 infectivity; format: cell-based
IIIB Env of HIV 1 = IIIB Env of HIV 1 (Human immunodeficiency virus type 1 group M subtype B, UniProt P03375); format: cell-based
[2] = biological target: T2, binding of HIV-1 IIIB gp120 to CD4 (Human immunodeficiency virus type 1 group M subtype B, UniProt P04578); assay: gp120-CD4 binding assay (ELISA); conditions: 1 hr at room temperature
T2 construct: The recombinant IIB gp120 protein (baculovirus-expressed) was obtained from Intracel; purchased Intracel (Cambridge, Mass.) for gp120; host or cells: baculovirus-expressed (gp120)
Method: To investigate the possible effect of porphyrin compounds on binding of HIV-1 IIIB gp120 to CD4, a gp120 CD4 binding assay was developed. The assay was developed as a modification of a capture gp120 ELISA kit (Intracel Corporation). Briefly, a 96-well plate was coated with soluble CD4 and 0.5 μg of HIV-1 IIIB gp120 per well was incubated in the presence or absence of test compounds for 1 hr at room temperature. After four washes with buffer to remove unbound proteins, the bound gp120 was detected by anti-gp120 peroxidase-conjugated antibodies and quantitated by the protocol provided by the manufacturer.

SIVmac1A11 = assay: Inactivation of SIVmac1A11 infectivity; format: cell-based, SIV

Molecule	CC50 (concentration that reduced the viability of cells by 50%) (MAGI cells) [µg/mL]	selective index CC50/EC50 (HIV-1 IIIB)	Presence of nuclei in syncytia, VV89.6 envt R5, 6 h (89.6 Env)	Presence of nuclei in syncytia, VV89.6 envt R5, 23 h (89.6 Env)	Presence of nuclei in syncytia, VV89.6 envt X4, 23 h (89.6 Env)	inactivating HSVs (HSV-1(F) or HSV-2(G))	Presence of nuclei in syncytia, pIIIenv X4, 6 h [1]	activity at low concentration (HIV-1 IIIB; 0.5 μg/ml, HIV-1 IIIB, MAGI cells)	kinetics of inactivation of HIV-1 IIIB (HIV-1 IIIB; 2 to 60 minutes)	activity against HIV in words (HIV-1 IIIB; MAGI screening assay, HIV-1 IIIB)	infected cells remaining (HIV-1 IIIB; after 2 min incubation)	HIV-1 89.6 inactivated (HIV-189.6) [%]	inhibition of HIV-induced cell fusion in words (IIIB Env of HIV 1)	inhibition of gp120/CD4 binding in words [2]	inhibition of HIV-induced cell fusion in words [1]	SIVmac1A11 inactivated (SIVmac1A11) [%]
O=S(=O)(O)c1ccc(-c2c3nc(c(-c4ccc(S(=O)(=O)O)cc4)c4ccc([nH]4)c(-c4ccc(S(=O)(=O)O)cc4)c4nc(c(-c5ccccc5)c5ccc2[nH]5)C=C4)C=C3)cc1 [TPPS3, meso-tetraphenylporphyrin trisulfonate]	50	10	−/4+	−/4+ (key: 4+: more than 50% of nuclei are in syncytia; 3+: 30 to 50% of nuclei are in syncytia; 2+: 30 to 10% of nuclei are in syncytia; +: less than 10% of nuclei are in syncytia; −: no syncytia were observed)	1+/4+ (key: 4+: more than 50% of nuclei are in syncytia; 3+: 30 to 50% of nuclei are in syncytia; 2+: 30 to 10% of nuclei are in syncytia; +: less than 10% of nuclei are in syncytia; −: no syncytia were observed)	active	−									
sulfonated 5,10,15,20-tetra-naphthalen-1-yl-porphyrin [TNapPS]	75						−	significant activity	inhibited viral growth almost completely	most active	approximately 1%	76	Complete inhibition	completely inhibit binding	complete inhibition	88
